Laboratory results from paper PMC9487510, “A Novel Oral GyrB/ParE Dual Binding Inhibitor Effective against Multidrug-Resistant Neisseria gonorrhoeae and Other High-Threat Pathogens” (Antimicrobial Agents and Chemotherapy, 2022).
Converted amounts (≈) assume the structure as drawn. Like-named read-outs stand apart in the source and are kept apart here.

System: N. gonorrhoeae clinical isolates
Experiment: MIC, agar dilution (CLSI)
Format: cell-based, Neisseria gonorrhoeae
Settings: for MIC: read-out: MIC

Structure (SMILES): C=CC1=C(C(=O)O)N2C(=O)[C@@H](NC(=O)/C(=N\OCC(=O)O)c3csc(N)n3)[C@H]2SC1 [Cfx, cefixime]
- MIC range (96 clinical isolates): 0.016 to 4 µg/mL
- MIC (Neisseria gonorrhoeae, strain CDC1 (GCREF2012 016)): 0.125 µg/mL (≈ 0.276 µM)
- MIC (Neisseria gonorrhoeae, strain CDC2 (GCREF2012 045)): 0.125 µg/mL (≈ 0.276 µM)
- MIC (Neisseria gonorrhoeae, strain CDC3 (GCREF2013 013)): 0.125 µg/mL (≈ 0.276 µM)
- MIC (Neisseria gonorrhoeae, strain CDC4 (GCREF2013 030)): 0.125 µg/mL (≈ 0.276 µM)
- MIC (Neisseria gonorrhoeae, strain CDC5 (GCREF2012 001)): 0.125 µg/mL (≈ 0.276 µM)
- MIC (Neisseria gonorrhoeae, strain CDC6 (GCREF2012 002)): 0.25 µg/mL (≈ 0.551 µM)
- MIC (Neisseria gonorrhoeae, strain CDC8 (GCREF2012 004)): 0.125 µg/mL (≈ 0.276 µM)
- MIC (Neisseria gonorrhoeae, strain CDC9 (GCREF2012 005)): 0.125 µg/mL (≈ 0.276 µM)
- MIC (Neisseria gonorrhoeae, strain CDC10 (GCREF2012 006)): 0.125 µg/mL (≈ 0.276 µM)
- MIC (Neisseria gonorrhoeae, strain CDC11 (GCREF2012 007)): 0.125 µg/mL (≈ 0.276 µM)
- MIC (Neisseria gonorrhoeae, strain CDC12 (GCREF2012 008)): 0.25 µg/mL (≈ 0.551 µM)
- MIC (Neisseria gonorrhoeae, strain CDC13 (GCREF2012 009)): 0.063 µg/mL (≈ 0.139 µM)
- MIC (Neisseria gonorrhoeae, strain CDC14 (GCREF2012 010)): 0.25 µg/mL (≈ 0.551 µM)
- MIC (Neisseria gonorrhoeae, strain CDC15 (GCREF2012 011)): 0.031 µg/mL (≈ 0.0684 µM)
- MIC (Neisseria gonorrhoeae, strain CDC16 (GCREF2012 012)): 4 µg/mL (≈ 8.82 µM)
- MIC (Neisseria gonorrhoeae, strain CDC18 (GCREF2012 014)): 0.063 µg/mL (≈ 0.139 µM)
- MIC (Neisseria gonorrhoeae, strain CDC19 (GCREF2012 015)): 0.125 µg/mL (≈ 0.276 µM)
- MIC (Neisseria gonorrhoeae, strain CDC20 (GCREF2012 017)): 0.125 µg/mL (≈ 0.276 µM)
- MIC (Neisseria gonorrhoeae, strain CDC21 (GCREF2012 018)): 0.25 µg/mL (≈ 0.551 µM)
- MIC (Neisseria gonorrhoeae, strain CDC22 (GCREF2012 019)): 0.031 µg/mL (≈ 0.0684 µM)
- MIC (Neisseria gonorrhoeae, strain CDC23 (GCREF2012 020)): 0.125 µg/mL (≈ 0.276 µM)
- MIC (Neisseria gonorrhoeae, strain CDC24 (GCREF2012 021)): 0.063 µg/mL (≈ 0.139 µM)
- MIC (Neisseria gonorrhoeae, strain CDC25 (GCREF2012 022)): 0.25 µg/mL (≈ 0.551 µM)
- MIC (Neisseria gonorrhoeae, strain CDC26 (GCREF2012 023)): 0.063 µg/mL (≈ 0.139 µM)
- MIC (Neisseria gonorrhoeae, strain CDC27 (GCREF2012 024)): 0.063 µg/mL (≈ 0.139 µM)
- MIC (Neisseria gonorrhoeae, strain CDC28 (GCREF2012 025)): 0.25 µg/mL (≈ 0.551 µM)
- MIC (Neisseria gonorrhoeae, strain CDC29 (GCREF2012 026)): 0.125 µg/mL (≈ 0.276 µM)
- MIC (Neisseria gonorrhoeae, strain CDC30 (GCREF2012 027)): 0.125 µg/mL (≈ 0.276 µM)
- MIC (Neisseria gonorrhoeae, strain CDC31 (GCREF2012 028)): 0.25 µg/mL (≈ 0.551 µM)
- MIC (Neisseria gonorrhoeae, strain CDC32 (GCREF2012 029)): 0.125 µg/mL (≈ 0.276 µM)
- MIC (Neisseria gonorrhoeae, strain CDC33 (GCREF2012 030)): 0.5 µg/mL (≈ 1.1 µM)
- MIC (Neisseria gonorrhoeae, strain CDC34 (GCREF2012 031)): 0.063 µg/mL (≈ 0.139 µM)
- MIC (Neisseria gonorrhoeae, strain CDC35 (GCREF2012 032)): 0.25 µg/mL (≈ 0.551 µM)
- MIC (Neisseria gonorrhoeae, strain CDC36 (GCREF2012 033)): 0.063 µg/mL (≈ 0.139 µM)
- MIC (Neisseria gonorrhoeae, strain CDC37 (GCREF2012 034)): 0.125 µg/mL (≈ 0.276 µM)
- MIC (Neisseria gonorrhoeae, strain CDC38 (GCREF2012 035)): 0.063 µg/mL (≈ 0.139 µM)
- MIC (Neisseria gonorrhoeae, strain CDC39 (GCREF2012 036)): 0.25 µg/mL (≈ 0.551 µM)
- MIC (Neisseria gonorrhoeae, strain CDC40 (GCREF2012 037)): 0.125 µg/mL (≈ 0.276 µM)
- MIC (Neisseria gonorrhoeae, strain CDC41 (GCREF2012 038)): 0.25 µg/mL (≈ 0.551 µM)
- MIC (Neisseria gonorrhoeae, strain CDC42 (GCREF2012 039)): 0.25 µg/mL (≈ 0.551 µM)
- MIC (Neisseria gonorrhoeae, strain CDC43 (GCREF2012 040)): 0.25 µg/mL (≈ 0.551 µM)
- MIC (Neisseria gonorrhoeae, strain CDC45 (GCREF2012 042)): 0.25 µg/mL (≈ 0.551 µM)
- MIC (Neisseria gonorrhoeae, strain CDC46 (GCREF2012 043)): 0.125 µg/mL (≈ 0.276 µM)
- MIC (Neisseria gonorrhoeae, strain CDC47 (GCREF2012 044)): 0.125 µg/mL (≈ 0.276 µM)
- MIC (Neisseria gonorrhoeae, strain CDC48 (GCREF2012 046)): 0.125 µg/mL (≈ 0.276 µM)
- MIC (Neisseria gonorrhoeae, strain CDC49 (GCREF2012 047)): 0.25 µg/mL (≈ 0.551 µM)
- MIC (Neisseria gonorrhoeae, strain CDC50 (GCREF2012 048)): 0.25 µg/mL (≈ 0.551 µM)
- MIC (Neisseria gonorrhoeae, strain CDC51 (GCREF2012 049)): 0.125 µg/mL (≈ 0.276 µM)
- MIC (Neisseria gonorrhoeae, strain CDC52 (GCREF2012 050)): 0.25 µg/mL (≈ 0.551 µM)
- MIC (Neisseria gonorrhoeae, strain CDC53 (GCREF2012 051)): 0.25 µg/mL (≈ 0.551 µM)
- MIC (Neisseria gonorrhoeae, strain CDC54 (GCREF2012 052)): 0.25 µg/mL (≈ 0.551 µM)
- MIC (Neisseria gonorrhoeae, strain CDC55 (GCREF2013 001)): 0.125 µg/mL (≈ 0.276 µM)
- MIC (Neisseria gonorrhoeae, strain CDC56 (GCREF2013 002)): 0.25 µg/mL (≈ 0.551 µM)
- MIC (Neisseria gonorrhoeae, strain CDC57 (GCREF2013 003)): 0.125 µg/mL (≈ 0.276 µM)
- MIC (Neisseria gonorrhoeae, strain CDC58 (GCREF2013 004)): 0.25 µg/mL (≈ 0.551 µM)
- MIC (Neisseria gonorrhoeae, strain CDC59 (GCREF2013 044)): 0.25 µg/mL (≈ 0.551 µM)
- MIC (Neisseria gonorrhoeae, strain CDC60 (GCREF2013 005)): 0.125 µg/mL (≈ 0.276 µM)
- MIC (Neisseria gonorrhoeae, strain CDC61 (GCREF2013 006)): 0.125 µg/mL (≈ 0.276 µM)
- MIC (Neisseria gonorrhoeae, strain CDC62 (GCREF2013 007)): 0.25 µg/mL (≈ 0.551 µM)
- MIC (Neisseria gonorrhoeae, strain CDC63 (GCREF2013 008)): 0.125 µg/mL (≈ 0.276 µM)
- MIC (Neisseria gonorrhoeae, strain CDC64 (GCREF2013 009)): 0.125 µg/mL (≈ 0.276 µM)
- MIC (Neisseria gonorrhoeae, strain CDC65 (GCREF2013 010)): 0.125 µg/mL (≈ 0.276 µM)
- MIC (Neisseria gonorrhoeae, strain CDC66 (GCREF2013 011)): 0.125 µg/mL (≈ 0.276 µM)
- MIC (Neisseria gonorrhoeae, strain CDC67 (GCREF2013 014)): 0.125 µg/mL (≈ 0.276 µM)
- MIC (Neisseria gonorrhoeae, strain CDC68 (GCREF2013 016)): 0.063 µg/mL (≈ 0.139 µM)
- MIC (Neisseria gonorrhoeae, strain CDC69 (GCREF2013 017)): 0.063 µg/mL (≈ 0.139 µM)
- MIC (Neisseria gonorrhoeae, strain CDC70 (GCREF2013 018)): 0.125 µg/mL (≈ 0.276 µM)
- MIC (Neisseria gonorrhoeae, strain CDC71 (GCREF2013 019)): 0.016 µg/mL (≈ 0.0353 µM)
- MIC (Neisseria gonorrhoeae, strain CDC72 (GCREF2013 020)): 0.25 µg/mL (≈ 0.551 µM)
- MIC (Neisseria gonorrhoeae, strain CDC73 (GCREF2013 021)): 0.125 µg/mL (≈ 0.276 µM)
- MIC (Neisseria gonorrhoeae, strain CDC74 (GCREF2013 022)): 0.125 µg/mL (≈ 0.276 µM)
- MIC (Neisseria gonorrhoeae, strain CDC75 (GCREF2013 023)): 0.125 µg/mL (≈ 0.276 µM)
- MIC (Neisseria gonorrhoeae, strain CDC76 (GCREF2013 024)): 0.125 µg/mL (≈ 0.276 µM)
- MIC (Neisseria gonorrhoeae, strain CDC77 (GCREF2013 025)): 0.125 µg/mL (≈ 0.276 µM)
- MIC (Neisseria gonorrhoeae, strain CDC78 (GCREF2013 026)): 0.063 µg/mL (≈ 0.139 µM)
- MIC (Neisseria gonorrhoeae, strain CDC79 (GCREF2013 027)): 0.125 µg/mL (≈ 0.276 µM)
- MIC (Neisseria gonorrhoeae, strain CDC80 (GCREF2013 028)): 0.125 µg/mL (≈ 0.276 µM)
- MIC (Neisseria gonorrhoeae, strain CDC81 (GCREF2013 029)): 0.25 µg/mL (≈ 0.551 µM)
- MIC (Neisseria gonorrhoeae, strain CDC82 (GCREF2013 031)): 0.125 µg/mL (≈ 0.276 µM)
- MIC (Neisseria gonorrhoeae, strain CDC83 (GCREF2013 032)): 0.125 µg/mL (≈ 0.276 µM)
- MIC (Neisseria gonorrhoeae, strain CDC84 (GCREF2013 033)): 0.125 µg/mL (≈ 0.276 µM)
- MIC (Neisseria gonorrhoeae, strain CDC86 (GCREF2013 035)): 0.125 µg/mL (≈ 0.276 µM)
- MIC (Neisseria gonorrhoeae, strain CDC87 (GCREF2013 036)): 0.25 µg/mL (≈ 0.551 µM)
- MIC (Neisseria gonorrhoeae, strain CDC88 (GCREF2013 037)): 0.125 µg/mL (≈ 0.276 µM)
- MIC (Neisseria gonorrhoeae, strain CDC89 (GCREF2013 038)): 0.125 µg/mL (≈ 0.276 µM)
- MIC (Neisseria gonorrhoeae, strain CDC90 (GCREF2013 039)): 0.125 µg/mL (≈ 0.276 µM)
- MIC (Neisseria gonorrhoeae, strain CDC91 (GCREF2013 040)): 4 µg/mL (≈ 8.82 µM)
- MIC (Neisseria gonorrhoeae, strain CDC92 (GCREF2013 041)): 0.125 µg/mL (≈ 0.276 µM)
- MIC (Neisseria gonorrhoeae, strain CDC93 (GCREF2013 042)): 0.125 µg/mL (≈ 0.276 µM)
- MIC (Neisseria gonorrhoeae, strain CDC94 (GCREF2013 043)): 0.125 µg/mL (≈ 0.276 µM)
- MIC (Neisseria gonorrhoeae, strain CDC95 (GCREF2013 045)): 0.25 µg/mL (≈ 0.551 µM)
- MIC (Neisseria gonorrhoeae, strain CDC96 (GCREF2013 046)): 0.125 µg/mL (≈ 0.276 µM)
- MIC (Neisseria gonorrhoeae, strain CDC97 (GCREF2013 047)): 0.125 µg/mL (≈ 0.276 µM)
- MIC (Neisseria gonorrhoeae, strain CDC98 (GCREF2013 048)): 0.125 µg/mL (≈ 0.276 µM)
- MIC (Neisseria gonorrhoeae, strain CDC99 (GCREF2013 012)): 0.125 µg/mL (≈ 0.276 µM)
- MIC (Neisseria gonorrhoeae, strain CDC100 (GCREF2013 015)): 0.25 µg/mL (≈ 0.551 µM)
- MIC50 (Neisseria gonorrhoeae, 96 clinical isolates, read-out: MIC50): 0.125 µg/mL (≈ 0.276 µM)
- MIC90 (Neisseria gonorrhoeae, 96 clinical isolates, read-out: MIC90): 0.25 µg/mL (≈ 0.551 µM)
